# Test results taken from patent US20230233569A1 (Revolution Medicines, Inc., priority 2020, published 2023).
# What was measured:
# [1] = system: P70S6K (Thr389) phosphorylation (mTORC1) in MDA-MB-468 cells; experiment: Cell based AlphaLISA assay, mTOR kinase cellular assay: inhibition of p-P70S6K (T389) in MDA-MB-468 cells; conditions: Homo sapiens, read-out: pIC50 for Inhibition of mTORC1 and mTORC2 Substarte Phosphorylation p-P70S6K-(T389) (converted)
# Description: Cell Based AlphaLISA Assays for Determining IC50 For Inhibition of P-Akt (S473), P-4E-BP1 (T37/46), and P-P70S6K (T389) in MDA-MB-468 Cells
# mTOR Kinase Cellular Assay
# To measure functional activity of mTORC1 and mTORC2 in cells the phosphorylation of 4EBP1 (Thr37/46) and P70S6K (Thr389), and AKT1/2/3 (Ser473) was monitored using AlphaLisa SureFire Ultra Kits (Perkin Elmer). MDA-MB-468 cells (ATCC® HTB-132) were cultured in 96-well tissue culture plates and treated with compounds in the disclosure at concentrations varying from 0.017-1,000 nM for two to four hours at 37° C. Incubations were terminated by removal of the assay buffer and addition of lysis buffer provided with the assay kit. Samples were processed according to the manufacturer's instructions. The Alpha signal from the respective phosphoproteins was measured in duplicate using a microplate reader (Envision, Perkin-Elmer or Spectramax M5, Molecular Devices). Inhibitor concentration response curves were analyzed using normalized IC50 regression curve fitting with control based normalization.
# [2] = system: 4EBP1 (Thr37/46) phosphorylation (mTORC1) in MDA-MB-468 cells; experiment: Cell based AlphaLISA assay, mTOR kinase cellular assay: inhibition of p-4E-BP1 (T37/46) in MDA-MB-468 cells; conditions: Homo sapiens, read-out: pIC50 for Inhibition of mTORC1 and mTORC2 Substarte Phosphorylation p-4E-BP1-(T37/46) (converted)
# Outline: (§1)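 MDA-MB-468 cells treated with compound at 0.017-1,000 nM for two to four hours at 37° C, then lysed. Phospho-AKT1/2/3 S473, 4EBP1 T37/46 and P70S6K T389 quantified by AlphaLISA SureFire Ultra in duplicate; IC50 from normalized regression with control-based normalization.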
# [3] = system: AKT1/2/3 (Ser473) phosphorylation (mTORC2) in MDA-MB-468 cells; experiment: Cell based AlphaLISA assay, mTOR kinase cellular assay: inhibition of p-Akt (S473) in MDA-MB-468 cells; conditions: Homo sapiens, read-out: pIC50 for Inhibition of mTORC1 and mTORC2 Substarte Phosphorylation p-AKT1/2/3-(S473) (converted)
# Outline: as §1
Structure (SMILES),IC50 [1],IC50 [2],IC50 [3]
CO[C@H]1C[C@@H]2CC[C@@H](C)[C@@](O)(O2)C(=O)C(=O)N2CCCC[C@H]2C(=O)O[C@H]([C@H](C)C[C@@H]2CC[C@@H](OC(=O)NCCOCCOCCOCCOCCOCCC(=O)NCCOCCOCCOCCOCCOCCC(=O)N3CCc4cc(Cn5nc(-c6cnc7[nH]ccc7c6)c6c(N)ncnc65)ccc4C3)[C@H](OC)C2)CC(=O)[C@H](C)/C=C(\C)[C@@H](O)[C@@H](OC)C(=O)[C@H](C)C[C@H](C)/C=C/C=C/C=C/1C [Example 21],≤ 1 nM,≤ 3.16 nM,31.6 to 1000 nM
CO[C@H]1C[C@@H]2CC[C@@H](C)[C@@](O)(O2)C(=O)C(=O)N2CCCC[C@H]2C(=O)O[C@H]([C@H](C)C[C@@H]2CC[C@@H](OC(=O)NCc3cnc(N4CCN(c5ncc(C(=O)NCCOCCOCCOCCOCCC(=O)N6CCc7cc(Cn8nc(-c9ccc%10oc(N)nc%10c9)c9c(N)ncnc98)ccc7C6)cn5)CC4)nc3)[C@H](OC)C2)CC(=O)[C@H](C)/C=C(\C)[C@@H](O)[C@@H](OC)C(=O)[C@H](C)C[C@H](C)/C=C/C=C/C=C/1C [Example 27],≤ 1 nM,≤ 3.16 nM,3.16 to 31.6 nM
CO[C@H]1C[C@@H]2CC[C@@H](C)[C@@](O)(O2)C(=O)C(=O)N2CCCC[C@H]2C(=O)O[C@H]([C@H](C)C[C@@H]2CC[C@@H](OC(=O)NCc3cnc(N4CCN(c5ncc(C(=O)NCCOCCOCCOCCOCCC(=O)N6CCc7cc(Cn8nc(-c9ccc%10oc(N)nc%10c9)c9c(N)ncnc98)ccc7C6)cn5)CC4)nc3)[C@H](OC)C2)C[C@@H](O)[C@H](C)/C=C(\C)[C@@H](O)[C@@H](OC)C(=O)[C@H](C)C[C@H](C)/C=C/C=C/C=C/1C [Example 28],≤ 1 nM,≤ 3.16 nM,> 1000 nM
CO[C@H]1C[C@@H]2CC[C@@H](C)[C@@](O)(O2)C(=O)C(=O)N2CCCC[C@H]2C(=O)O[C@H]([C@H](C)C[C@@H]2CC[C@@H](OC(=O)NCc3cnc(N4CCN(c5ncc(C(=O)NCCOCCOCCOCCOCCC(=O)N6CCc7cc(Cn8nc(-c9ccc%10oc(N)nc%10c9)c9c(N)ncnc98)ccc7C6)cn5)CC4)nc3)[C@H](OC)C2)C[C@@H](OC)[C@H](C)/C=C(\C)[C@@H](O)[C@@H](OC)C(=O)[C@H](C)C[C@H](C)/C=C/C=C/C=C/1C [Example 29],≤ 1 nM,≤ 3.16 nM,> 1000 nM
CO[C@H]1C[C@@H]2CC[C@@H](C)[C@@](O)(O2)C(=O)C(=O)N2CCCC[C@H]2C(=O)O[C@H]([C@H](C)C[C@@H]2CC[C@@H](OC(=O)NCc3cnc(N4CCN(c5ncc(C(=O)NCCOCCOCCC(=O)N6CCc7cc(Cn8nc(-c9ccc%10oc(N)nc%10c9)c9c(N)ncnc98)ccc7C6)cn5)CC4)nc3)[C@H](OC)C2)CC(=O)[C@H](C)/C=C(\C)[C@@H](O)[C@@H](OC)C(=O)[C@H](C)C[C@H](C)/C=C/C=C/C=C/1C [Example 31],≤ 1 nM,≤ 3.16 nM,3.16 to 31.6 nM
CO[C@H]1C[C@@H]2CC[C@@H](C)[C@@](O)(O2)C(=O)C(=O)N2CCCC[C@H]2C(=O)O[C@H]([C@H](C)C[C@@H]2CC[C@@H](OC(=O)NCc3cnc(N4CCN(c5ncc(C(=O)NCCOCCOCCOCCOCCC(=O)NCCCCn6nc(-c7cnc8[nH]ccc8c7)c7c(N)ncnc76)cn5)CC4)nc3)[C@H](OC)C2)CC(=O)[C@H](C)/C=C(\C)[C@@H](O)[C@@H](OC)C(=O)[C@H](C)C[C@H](C)/C=C/C=C/C=C/1C [Example 32],≤ 1 nM,≤ 3.16 nM,3.16 to 31.6 nM
CO[C@H]1C[C@@H]2CC[C@@H](C)[C@@](O)(O2)C(=O)C(=O)N2CCCC[C@H]2C(=O)O[C@H]([C@H](C)C[C@@H]2CC[C@@H](OC(=O)NCc3cnc(N4CCN(c5ncc(C(=O)NCCOCCOCCOCCOCCC(=O)N6CCc7cc(Cn8nc(-c9cnc%10[nH]ccc%10c9)c9c(N)ncnc98)ccc7C6)cn5)CC4)nc3)[C@H](OC)C2)CC(=O)[C@H](C)/C=C(\C)[C@@H](O)[C@@H](OC)C(=O)[C@H](C)C[C@H](C)/C=C/C=C/C=C/1C [Example 33],≤ 1 nM,≤ 3.16 nM,> 1000 nM
CO[C@H]1C[C@@H]2CC[C@@H](C)[C@@](O)(O2)C(=O)C(=O)N2CCCC[C@H]2C(=O)O[C@H]([C@H](C)C[C@@H]2CC[C@@H](OC(=O)N(C)Cc3cnc(N4CCN(c5ncc(C(=O)NCCOCCOCCOCCOCCC(=O)N6CCc7cc(Cn8nc(-c9cnc%10[nH]ccc%10c9)c9c(N)ncnc98)ccc7C6)cn5)CC4)nc3)[C@H](OC)C2)CC(=O)[C@H](C)/C=C(\C)[C@@H](O)[C@@H](OC)C(=O)[C@H](C)C[C@H](C)/C=C/C=C/C=C/1C [Example 34],≤ 1 nM,> 1000 nM,> 1000 nM
CO[C@H]1C[C@@H]2CC[C@@H](C)[C@@](O)(O2)C(=O)C(=O)N2CCCC[C@H]2C(=O)O[C@H]([C@H](C)C[C@@H]2CC[C@@H](OC(=O)N3CCc4nc(N5CCN(c6ncc(C(=O)NCCOCCOCCOCCOCCC(=O)NCCCCn7nc(-c8cnc9[nH]ccc9c8)c8c(N)ncnc87)cn6)CC5)ncc4C3)[C@H](OC)C2)CC(=O)[C@H](C)/C=C(\C)[C@@H](O)[C@@H](OC)C(=O)[C@H](C)C[C@H](C)/C=C/C=C/C=C/1C [Example 35],≤ 1 nM,≤ 3.16 nM,3.16 to 31.6 nM
CO[C@H]1C[C@@H]2CC[C@@H](C)[C@@](O)(O2)C(=O)C(=O)N2CCCC[C@H]2C(=O)O[C@H]([C@H](C)C[C@@H]2CC[C@@H](OC(=O)N3CCc4nc(N5CCN(c6ncc(C(=O)NCCOCCOCCOCCOCCC(=O)N7CCc8cc(Cn9nc(-c%10cnc%11[nH]ccc%11c%10)c%10c(N)ncnc%109)ccc8C7)cn6)CC5)ncc4C3)[C@H](OC)C2)CC(=O)[C@H](C)/C=C(\C)[C@@H](O)[C@@H](OC)C(=O)[C@H](C)C[C@H](C)/C=C/C=C/C=C/1C [Example 36],≤ 1 nM,≤ 3.16 nM,> 1000 nM
CO[C@H]1C[C@@H]2CC[C@@H](C)[C@@](O)(O2)C(=O)C(=O)N2CCCC[C@H]2C(=O)O[C@H]([C@H](C)C[C@@H]2CC[C@@H](OC(=O)N3CCN(c4ncc(C(=O)NCCOCCOCCOCCOCCOCCC(=O)N5CCc6cc(Cn7nc(-c8cnc9[nH]ccc9c8)c8c(N)ncnc87)ccc6C5)cn4)CC3)[C@H](OC)C2)CC(=O)[C@H](C)/C=C(\C)[C@@H](O)[C@@H](OC)C(=O)[C@H](C)C[C@H](C)/C=C/C=C/C=C/1C [Example 37],≤ 1 nM,≤ 3.16 nM,> 1000 nM
CO[C@H]1C[C@@H]2CC[C@@H](C)[C@@](O)(O2)C(=O)C(=O)N2CCCC[C@H]2C(=O)O[C@H]([C@H](C)C[C@@H]2CC[C@@H](OC(=O)N3CCc4nc(N5CCN(CCOCCOCCOCCOCCOCCC(=O)N6CCc7cc(Cn8nc(-c9cnc%10[nH]ccc%10c9)c9c(N)ncnc98)ccc7C6)CC5)ncc4C3)[C@H](OC)C2)CC(=O)[C@H](C)/C=C(\C)[C@@H](O)[C@@H](OC)C(=O)[C@H](C)C[C@H](C)/C=C/C=C/C=C/1C [Example 38],≤ 1 nM,> 1000 nM,> 1000 nM
CO[C@H]1C[C@@H]2CC[C@@H](C)[C@@](O)(O2)C(=O)C(=O)N2CCCC[C@H]2C(=O)O[C@H]([C@H](C)C[C@@H]2CC[C@@H](OC(=O)N3CCc4nc(N5CCN(c6ncc(C(=O)NCCOCCOCCOCCOCCC(=O)N7CCc8cc(Cn9nc(-c%10ccc%11oc(N)nc%11c%10)c%10c(N)ncnc%109)ccc8C7)cn6)CC5)ncc4C3)[C@H](OC)C2)CC(=O)[C@H](C)/C=C(\C)[C@@H](O)[C@@H](OC)C(=O)[C@H](C)C[C@H](C)/C=C/C=C/C=C/1C [Example 39],≤ 1 nM,≤ 3.16 nM,≤ 3.16 nM
CO[C@H]1C[C@@H]2CC[C@@H](C)[C@@](O)(O2)C(=O)C(=O)N2CCCC[C@H]2C(=O)O[C@H]([C@H](C)C[C@@H]2CC[C@@H](OC(=O)NCc3cnc(N4CCN(c5ncc(C(=O)NCCOCCOCCOCCOCCC(=O)N6CCc7cc(Cn8nc(-c9ccc%10oc(N)nc%10c9)c9c(N)ncnc98)ccc7C6)cn5)CC4CO)nc3)[C@H](OC)C2)CC(=O)[C@H](C)/C=C(\C)[C@@H](O)[C@@H](OC)C(=O)[C@H](C)C[C@H](C)/C=C/C=C/C=C/1C (stereo partly drawn) [Example 40],≤ 1 nM,≤ 3.16 nM,3.16 to 31.6 nM
CO[C@H]1C[C@@H]2CC[C@@H](C)[C@@](O)(O2)C(=O)C(=O)N2CCCC[C@H]2C(=O)O[C@H]([C@H](C)C[C@@H]2CC[C@@H](OC(=O)NCCOCCOCCOCCOCCC(=O)NCc3cnc(N4CCN(c5ncc(C(=O)N6CCc7cc(Cn8nc(-c9ccc%10oc(N)nc%10c9)c9c(N)ncnc98)ccc7C6)cn5)CC4)nc3)[C@H](OC)C2)CC(=O)[C@H](C)/C=C(\C)[C@@H](O)[C@@H](OC)C(=O)[C@H](C)C[C@H](C)/C=C/C=C/C=C/1C [Example 46],≤ 1 nM,≤ 3.16 nM,3.16 to 31.6 nM
